Columns and labels:
[1] = test system: rat hepatocytes in coculture; assay: Inhibition of extracellular matrix remodeling: hepatocyte DNA synthesis in coculture; type: cell-based; conditions: phenanthroline 1 μM added to cocultures treated with EGF for 24 h and then with TNFα
Protocol: (§1) Hepatocyte DNA synthesis is measured by using BrdU (bromodeoxyuridine) labeling. BrdU incorporation in DNA is detected by immunohistochemistry using the Cell Proliferation Kit (Amersham). The number of labeled hepatocytes is determined (5 fields per dish) in order to calculate the percentage of BrdU incorporation.
7 day-old cocultures are stimulated with EGF and then with TNFα for 24 h periods. Factors are added in a FCS-free medium. Inhibition of extracellular matrix degradation is induced with 1,10-Phenanthroline monohydrate (Sigma), a chelator of metal ions which inhibits the metalloproteinase activity. This compound is soluble in dimethylsulfoxyde and is used at 1 μM.

[2] = test system: rat hepatocytes in coculture with rat biliary epithelial cells (RLEC); assay: Hepatocyte DNA synthesis by BrdU labeling in rat hepatocyte/RLEC coculture; type: cell-based
Protocol: Freshly isolated hepatocytes are seeded on plastic dishes at 7×10^4 cells per cm2 in a mixture of 75% minimal essential medium and 25% 199 medium (Eurobio), supplemented with 2 mM L-glutamine, 0,1% bovine serum albumin (BSA, Sigma), 100 μg/ml streptomycin, 100 Ul/ml penicillin, 5 μg/ml bovine insulin (Sigma), 1.4×10^-6 M hydrocortisone hemisuccinate (Roussel) and 10% fetal calf serum (Hyclone). This medium is called “basal medium”.
After cell adhesion, approximately 4 hours after seeding, RLEC, previously trypsinized, are added on spread hepatocytes at 2×10^5 cells per cm2 in basal medium.
Twenty four hours later, the medium is removed and replaced by a medium supplemented in 7×10^-5 M hydrocortisone hemisuccinate, which promotes hepatocyte differentiation and survival. This medium is renewed everyday for 4 days. Then, the concentration of hydrocortisone hemisuccinate is decreased to 7×10^-6 M for 2 days.
7 day-old cocultures are stimulated with human recombinant EGF (50 ng/ml, Promega) and human recombinant TNF-alpha (10 ng/ml, Promokine) in basal medium for 3 to 10 days. The medium is renewed everyday. As control, cocultures exposed to TNFα alone or EGF are used.
To induce several rounds of hepatocyte proliferation, 7 day-old cocultures are stimulated with human recombinant EGF (50 ng/ml) and human recombinant TNFα (10 ng/ml) in basal medium, for 10 days. Then, a pause in stimulation is performed for 4 days, during which cells are maintained in medium supplemented in 7×10^-6 M hydrocortisone hemisuccinate. Next, cocultures are treated with EGF and TNFα in basal medium for 10 days.
as §1

[3] = test system: extracellular matrix; assay: Extracellular matrix deposition analysis (reticulin staining) in coculture; type: cell-based, rat; conditions: 7 day-old cocultures
Protocol: Matrix fibers are visualized in cocultures fixed with a mixture of 4% paraformaldehyde and 2.5% glutaraldehyde in 0.1 M cacodylate buffer (pH 7.4) for 15 min at 4° C. Then the reticulin staining by silver impregnation of extracellular matrix is carried out according to the method of Gordon and Sweets and applied to coculture (Exp Cell Res 1984; J Cell Biol 1991). Matrix components are analysed by immunostaining using antibodies against fibronectin, collagen I, collagen III)

[4] = test system: pro-MMP9; assay: Gelatin zymography of coculture supernatant; type: cell-based, rat; conditions: FCS-free medium, 24 h
Protocol: 7 day-old cocultures are stimulated with different combinations of TNFα and/or EGF in a FCS-free medium for 24 h. Twenty μl of supernatant are electrophoresed under nonreducing conditions on 12% SDS-polyacrylamide gel containing 0,1% bovine skin gelatin (Sigma) as substrate. After electrophoresis, the gel is washed twice with 2.5% Triton X-100 for 10 min and twice with water for 20 min. After incubation overnight at 37° C. in reaction buffer (50 mM Tris-HCL, pH 8; 5 mM CaCl2; 5 μM ZnCl2), the gel is stained with Coomassie Brillant Blue and destained. Clear zones in blue background indicate the presence of metalloproteinase pro-MMP9 activity; 5% FCS is used as positive control.

[5] = test system: human hepatocytes; assay: DNA synthesis by BrdU incorporation in pure culture of human hepatocytes; type: cell-based; conditions: stimulated 24 h after seeding for 48 h
Protocol: Freshly isolated hepatocytes are seeded on plastic dishes at 5×10^4 cells per cm2 in a William's E medium (Eurobio) supplemented with 2 mM L-glutamine (Gibco), 0,1% bovine serum albumin (BSA, Sigma), 100 μg/ml streptomycin, 100 Ul/ml penicillin (Eurobio), 50 μg/ml gentamycine (Sigma), 5 μg/ml bovine insulin (Sigma), and 10% fetal calf serum (HyClone).
Twenty four hours after seeding, human hepatocytes are stimulated with recombinant human TNFα (Promokine, 10 ng/ml) and recombinant human EGF (Promega, 50 ng/ml). These factors are added in William's E medium (Eurobio) supplemented with 2 mM L-glutamine (Gibco), 0,1% bovine serum albumin (BSA, Sigma), 100 μg/ml streptomycin, 100 Ul/ml penicillin (Eurobio), 50 μg/ml gentamycine (Sigma), 5 μg/ml bovine insulin (Sigma), 1.4×10^-6 M hydrocortisone hemisuccinate (Roussel), 10% fetal calf serum. This medium is renewed every day and stimulation lasts at least 2 days.
BrdU is incubated in medium during the last 24 h of treatment. Then pure cultures are fixed with a mixture of 90% ethanol, 5% acid acetic and 5% water for 20 min at 4° C. BrdU incorporation in DNA is detected by immunohistochemistry using the Cell Proliferation kit (Amersham). Next, cytoplasm and nuclei are stained in blue with Hemalun (Merck). The numbers of labeled hepatocytes are determined (5 fields per dish) in order to calculate percentage of BrdU incorporation.

[6] = test system: cyclin D1, EF21, cyclin E, Cdk1; assay: Expression of cell cycle markers in coculture; type: cell-based, rat; conditions: successive 24 h treatments
Protocol: A test is provided to analyze the mechanism of cell cycle blockage or progression (early G1, Late G1, S and M) induced by drugs by studying the expression of cell cycle markers which sign different steps of cell cycle (cyclin D1, E2 F1, Cdk2, cyclin E, Cdk1, cyclin B, PCNA, alpha tubulin). Successive 24 h treatments of cocultures by molecules added alone or in combination with EGF or TNFα are used to determine the effect of each molecule.
Cells are arrested at each time (24 and 48 h) and protein extracts are prepared and separated in SDS-polyacrylamide gel. Cell cycle markers are analyzed by western blot using corresponding antibodies.

O.c1cnc2c(c1)ccc1cccnc12 [phenanthroline, 1,10-Phenanthroline monohydrate]
DNA synthesis [1]: strongly decreased

EGF: human recombinant EGF (50 ng/ml, Promega), growth factor
BrdU incorporation under permanent exposure ([2]; continued after a first 10 day-stimulation with TNFα/EGF, from day 10): gradually decreases
extracellular matrix (ECM) deposition [3]: very abundant
Pro-MMP9 (92 Kda) expression by zymography [4]: not detected
hepatocytes with DNA synthesis (S phase entry) [5]: 8%
effect on hepatocyte cell cycle progression [6]: promotes hepatocyte cell cycle progression to late G1

TGFα: transforming growth factor alpha (20 ng/ml), replacing EGF
DNA synthesis when EGF is replaced by another growth factor ([2]; with TNFα, HGF 25 ng/ml, TGFα 20 ng/ml, compared with TNFα/EGF): highest DNA synthesis

TNFα
extracellular matrix (ECM) deposition [3]: very sparse
Pro-MMP9 (92 Kda) expression by zymography [4]: expressed
effect on hepatocyte cell cycle progression [6]: allows S entry through Cdk1 induction

interleukin 6: cytokine known to modulate extracellular matrix remodeling, used at 5 ng/ml
hepatocyte response to growth factors (DNA replication) ([2]; coculture, 5 ng/ml): allow hepatocytes to respond to growth factors

— US20050244959A1, “Methods for inducing active hepatocytes proliferation, kits using such methods and uses of said kits” (priority 2004, published 2005)
